Measurements: patent US20260176285A1, “SALT OF DIOXANE QUINOLINE COMPOUND, CRYSTAL FORM THEREOF, PREPARATION METHODS THEREFOR AND USES THEREOF” (Beijing Scitech-MQ Pharmaceuticals Limited, priority 2022, published 2026)
Converted amounts (≈) assume the structure as drawn.

What was measured:
[1] = Dynamic solubility in water, SGF, FaSSIF and FeSSIF; assay type: physicochemical; settings: for solubility at 1 h / solubility at 2 h / solubility at 4 h / solubility at 24 h: 37 °C, thermodynamic from solid
Procedure: Biological solvent Preparation • 1. […] 67.5 μL of concentrated hydrochloric acid (12 M) was added and the mixture was adjusted to a pH value of 1.8 with 1 M hydrochloric acid or 1 M NaOH solution. Purified water was added to make up to volume. • 2. Preparation of Fasted State Simulated Intestinal Fluid (FaSSIF): 0.17 g of anhydrous NaH2PO4, 0.021 g of NaOH, and 0.31 g of NaCl were weighed into a 50-mL volumetric flask. About 48 mL of purified water was added to dissolve the mixture completely, and the solution was adjusted to a pH value of 6.5 with 1 M hydrochloric acid or 1 M NaOH solution. Purified water was added to make up to volume. 0.11 g of SIF powder was added and dissolved completely. • 3. Preparation of Fed State Simulated Intestinal Fluid (FeSSIF): 0.41 mL of glacial acetic acid, 0.20 g of NaOH and 0.59 g of NaCl were weighed into a 50-mL volumetric flask. About 48 mL of purified water was added to dissolve the mixture completely, and the solution was adjusted to a pH value of 5.0 with 1 M hydrochloric acid or 1 M NaOH solution. Purified water was added to make up to volume. 0.56 g of SIF powder was added and dissolved completely.
The dynamic solubility of the free state, the mucate salt crystal form A-I, the p-toluenesulfonate salt crystal form A-II, the di-p-toluenesulfonate salt crystal form A-IV and the phosphate salt crystal form A-V of the compound of formula (I) in water and three biological solvents was evaluated.
The samples at each time point were centrifuged and filtered (0.45 μm PTFE filter head), and the HPLC concentration and pH value of the filtrate were determined.

[2] = Hygroscopicity by dynamic moisture sorption (DVS); assay type: physicochemical
Procedure: Dynamic moisture sorption (DVS): The curves were collected on a DVS Intrinsic of SMS (Surface Measurement Systems). At 25° C., the humidity range was 0% RH-95% RH, the step was 10% (the last step was 5%), and the dm/dt was 0.002%/min.
The hygroscopicity of the free compound of formula (I), mucate salt crystal form A-I, p-toluenesulfonate salt crystal forms A-II and B-III, di-p-toluenesulfonate salt crystal form A-IV and phosphate salt crystal form A-V was evaluated by dynamic moisture sorption instrument (DVS). Starting from 0% relative humidity (0% RH), the test collected the mass change percentage of the samples under constant temperature of 25° C. with humidity changes (0% RH-95% RH-0% RH).

[3] = Solid-state stability evaluation (XRPD, HPLC); assay type: physicochemical
Procedure: The following 6 test samples were placed under 25° C./60% RH and 40° C./75% RH conditions for 1 week, and then the physical and chemical stability of the samples was tested by XRPD and HPLC.
At the same time, after the p-toluenesulfonate salt crystal form A-II and crystal form B-III solids were placed at 80° C. for 24 hours, the physical and chemical stability of the samples were tested by XRPD and HPLC.

[4] = test system: human lung cancer cells EBC-1; assay: Efficacy in nude mouse tumor-bearing model of human lung cancer cells EBC-1; assay type: in vivo, Balb/c nude mouse
Source text: In this assay, the free compound of formula (I) of the present application and different salts of the compound prepared in Examples 1, 2 and 5 were orally administered to a nude mouse tumor-bearing model of human lung cancer cells EBC-1 to study their effects on tumor growth.
Preparation of test compounds: an appropriate weight of the test compound (including the free form of the compound of formula (I) and different salts of the compound prepared in Examples 1, 2 and 5) was weighed, completely suspended/dissolved in an appropriate volume of 0.1% sodium carboxymethyl cellulose, stirred and vortexed to give a uniform solution or suspension.
Methods: All assays were authorized by the Animal Welfare Committee. EBC-1 in the logarithmic growth phase was inoculated into immune-deficient nude mice (BALB/c nude, female, 6-8 weeks old, weighing 18±2 g), subcutaneously on the right back, with a cell inoculation amount of 5×10^6/mouse. After the tumor grew to 150-200 mm^3, the animals were randomly divided into groups, 6 mice per group. The dose of each test substance was set at 15 mg/kg and 7.5 mg/kg (both based on the concentration of the effective formula (I) compound), and administered once a day for about 3 weeks. The test compounds were freshly prepared each day before use. During the assay, the tumor diameter was measured twice a week, and the mice were weighed at the same time. The calculation formula of tumor volume (TV) is: TV=1/2×a×b^2, where a and b represent length and width, respectively. The relative tumor volume (RTV) was calculated based on the measurement results, and the calculation formula is: RTV=Vt/V0, wherein V0 is the tumor volume measured at the time of cage grouping and dosing initiation (i.e., d0), and Vt is the tumor volume at each measurement. The evaluation index of antitumor activity is the relative tumor proliferation rate T/C (%), calculated as follows: T/C (%)=(TRTV/CRTV)×100%, TRTV: RTV of the treatment group; CRTV: RTV of the negative control group. T and C represent the average tumor volume at a certain time point in the drug administration group and the control group, respectively.

[5] = pH 1.8, simulated gastric fluid

O=C(Nc1ccc(F)cc1)C1(C(=O)Nc2ccc(Oc3ccnc4cc(OCCCN5CCOCC5)c5c(c34)OCCO5)c(F)c2)CC1 [Free state, N-(3-fluoro-4-((5-(3-morpholinopropoxy)-2,3-dihydro-[1,4]dioxano[2,3-f]quinolin-10-yl)oxy)phenyl)-N-(4-fluorophenyl)cyclopropane-1,1-dicarboxamide]
S (dynamic solubility) [1]: <LOQ
solubility at 1 h [1, 5]: 5700 µg/mL (≈ 8630 µM)
solubility at 2 h [1, 5]: 5800 µg/mL (≈ 8780 µM)
solubility at 4 h [1, 5]: 5700 µg/mL (≈ 8630 µM)
solubility at 24 h [1, 5]: 5700 µg/mL (≈ 8630 µM)
solubility at 1 h ([1]; pH 5, fessif): 640 µg/mL (≈ 969 µM)
solubility at 2 h ([1]; pH 5, fessif): 710 µg/mL (≈ 1070 µM)
solubility at 4 h ([1]; pH 5, fessif): 710 µg/mL (≈ 1070 µM)
solubility at 24 h ([1]; pH 5, fessif): 760 µg/mL (≈ 1150 µM)
solubility at 1 h ([1]; pH 6.5, fassif): 1.8 µg/mL (≈ 2.72 µM)
solubility at 2 h ([1]; pH 6.5, fassif): 1.9 µg/mL (≈ 2.88 µM)
solubility at 4 h ([1]; pH 6.5, fassif): 2.1 µg/mL (≈ 3.18 µM)
solubility at 24 h ([1]; pH 6.5, fassif): 2.5 µg/mL (≈ 3.78 µM)
pH of the filtrate ([1]; FaSSIF, 1 hour): 6.4
pH of the filtrate ([1]; FaSSIF, 2 hours): 6.4
pH of the filtrate ([1]; FaSSIF, 4 hours): 6.4
pH of the filtrate ([1]; FaSSIF, 24 hours): 6.4
pH of the filtrate ([1]; FeSSIF, 1 hour): 4.9
pH of the filtrate ([1]; FeSSIF, 2 hours): 5.0
pH of the filtrate ([1]; FeSSIF, 4 hours): 5.0
pH of the filtrate ([1]; FeSSIF, 24 hours): 5.0
pH of the filtrate ([1]; H2O, 1 hour): 6.7
pH of the filtrate ([1]; H2O, 2 hours): 5.5
pH of the filtrate ([1]; H2O, 4 hours): 6.7
pH of the filtrate ([1]; H2O, 24 hours): 7.8
pH of the filtrate ([1]; SGF, 1 hour): 3.6
pH of the filtrate ([1]; SGF, 2 hours): 3.7
pH of the filtrate ([1]; SGF, 4 hours): 3.7
pH of the filtrate ([1]; SGF, 24 hours): 3.8
Whether the crystal form changes after DVS test ([2]; 0% RH-95% RH-0% RH, 25° C.): no
Hygroscopicity ([2]; DVS, 25° C.): Almost no
Moisture adsorption (25° C./80% RH) ([2]; DVS, 25° C./80% RH): 0.11%
Change of Crystal form ([3]; 25° C./60% RH, 1 week): no
Purity ([3]; 25° C./60% RH, 1 week): 99.36 area %
Purity/initial purity ([3]; 25° C./60% RH, 1 week): 99.9%
Change of Crystal form ([3]; 40° C./75% RH, 1 week): no
Purity ([3]; 40° C./75% RH, 1 week): 99.39 area %
Purity/initial purity ([3]; 40° C./75% RH, 1 week): 99.9%
Change of Crystal form ([3]; Starting): no
Purity ([3]; Starting): 99.44 area %
T/C (relative tumor proliferation rate) ([4]; 7.5 mg/kg oral once a day, day 3): 80.2%
T/C (relative tumor proliferation rate) ([4]; 7.5 mg/kg oral once a day, day 7): 68.3%
T/C (relative tumor proliferation rate) ([4]; 7.5 mg/kg oral once a day, day 10): 77.9%
T/C (relative tumor proliferation rate) ([4]; 7.5 mg/kg oral once a day, day 14): 69.3%
T/C (relative tumor proliferation rate) ([4]; 7.5 mg/kg oral once a day, day 18): 81.3%
T/C (relative tumor proliferation rate) ([4]; 7.5 mg/kg oral once a day, day 21): 70.68%
T/C (relative tumor proliferation rate) ([4]; 15 mg/kg oral once a day, day 3): 88.8%
T/C (relative tumor proliferation rate) ([4]; 15 mg/kg oral once a day, day 7): 76.9%
T/C (relative tumor proliferation rate) ([4]; 15 mg/kg oral once a day, day 10): 80.4%
T/C (relative tumor proliferation rate) ([4]; 15 mg/kg oral once a day, day 14): 66.4%
T/C (relative tumor proliferation rate) ([4]; 15 mg/kg oral once a day, day 18): 72.2%
T/C (relative tumor proliferation rate) ([4]; 15 mg/kg oral once a day, day 21): 64.60%
